According to US12171755B2, “PAPD5 inhibitors and methods of use thereof” (Children's Medical Center Corporation, priority 2017, dated 2024):

Target: T1, PAPD5 (Homo sapiens, UniProt Q8NDF8)
T1 construct: made in house
Test: High-throughput luminescence (KinaseGlo) RNA polyadenylation assay, ATP utilization by recombinant PAPD5
Type: biochemical
Settings: Table 4 (entries of Table 5), ratio of luminescence with inhibitor to DMSO; for Fold-change determined at compound concentration 33 μM: 33 μM compound; for Fold-change determined at compound concentration 100 μM: 100 μM compound, higher = higher inhibition
Outline: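 Recombinant PAPD5 polyadenylates an oligonucleotide substrate using ATP, and remaining ATP is read by KinaseGlo luciferase luminescence. Compound was incubated for 2 h at room temperature, then with luciferase for 10 min.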

T1 sequence (Q8NDF8 68-698 isoform Q8NDF8-5): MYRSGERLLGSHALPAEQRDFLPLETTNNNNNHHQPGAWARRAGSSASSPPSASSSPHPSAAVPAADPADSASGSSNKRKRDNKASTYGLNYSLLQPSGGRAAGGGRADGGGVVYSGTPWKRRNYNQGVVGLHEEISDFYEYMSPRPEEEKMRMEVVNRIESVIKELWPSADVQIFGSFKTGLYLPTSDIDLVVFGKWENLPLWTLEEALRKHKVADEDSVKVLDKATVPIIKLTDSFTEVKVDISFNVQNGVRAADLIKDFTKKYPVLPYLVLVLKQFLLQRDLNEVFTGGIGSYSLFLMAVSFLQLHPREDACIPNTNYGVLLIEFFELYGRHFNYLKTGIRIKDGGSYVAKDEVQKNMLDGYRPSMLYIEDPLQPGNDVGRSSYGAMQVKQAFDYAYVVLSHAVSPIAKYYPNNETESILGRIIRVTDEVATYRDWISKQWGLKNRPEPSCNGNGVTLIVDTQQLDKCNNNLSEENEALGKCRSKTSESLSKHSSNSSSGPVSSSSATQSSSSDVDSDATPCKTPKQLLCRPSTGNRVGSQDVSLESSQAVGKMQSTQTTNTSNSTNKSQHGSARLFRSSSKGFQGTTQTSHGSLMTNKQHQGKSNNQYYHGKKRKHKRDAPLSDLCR

SMILES	Fold-change determined at compound concentration 33 μM	Fold-change determined at compound concentration 100 μM
Cc1ccc(S(=O)(=O)NC2=NC3=NC(c4ccccc4)=CC(c4ccc(Cl)cc4)N3N2)cc1 (stereo not shown) [Entry 159, N-[7-(4-chlorophenyl)-5-phenyl-1,7-dihydro-[1,2,4]triazolo[1,5-a]pyrimidin-2-yl]-4-methylbenzenesulfonamide]	1.12	1.22
Cn1c(=O)c2nc(SCC(=O)O)n(CCc3ccccc3)c2n(C)c1=O [Entry 79, 2-[1,3-dimethyl-2,6-dioxo-9-(2-phenylethyl)purin-8-yl]sulfanylacetic acid]	1.164	1.447
Nc1nc(N2CCCC2)nc2ccccc12 [Entry 33, 2-(1-pyrrolidinyl)-4-quinazolinamine]	1.175	1.505
Cc1cc(Cl)ccc1NS(=O)(=O)c1cc2[nH]c(=O)c(=O)[nH]c2cc1C [Entry 134, N-(4-chloro-2-methylphenyl)-7-methyl-2,3-dioxo-1,4-dihydroquinoxaline-6-sulfonamide]	1.124	1.298
O=C(O)C1CCCN(c2ncnc3c2oc2ccccc23)C1 (stereo not shown) [Entry 35, 1-[1]benzofuro[3,2-d]pyrimidin-4-ylpiperidine-3-carboxylic acid]	1.04	1.287
CC(C)C(CO)Nc1nc(Nc2ccc(C(=O)O)c(Cl)c2)c2ncn(C(C)C)c2n1 (stereo in doubt) [Entry 46, 2-chloro-4-[[2-[[(2R)-1-hydroxy-3-methylbutan-2-yl]amino]-9-propan-2-ylpurin-6-yl]amino]benzoic acid]	1.079	1.328
O=C(CSc1nc(=O)c2ccccc2[nH]1)NCc1nc2ccccc2[nH]1 [Entry 97, N-(1H-benzimidazol-2-ylmethyl)-2-[(4-oxo-1H-quinazolin-2-yl)sulfanyl]acetamide]	1.171	1.403
NC(=O)C1CCN(c2nc3c(S(=O)(=O)c4ccccc4)nnn3c3ccsc23)CC1 [Entry 44, 1-(3-(phenylsulfonyl)thieno[2,3-e][1,2,3]triazol[1,5-a]pyrimidin-5-yl)piperidine-4-carboxamide]	1.273	1.651
COc1cc(-c2nc(C(N)=O)c3[nH]c(=O)n(CC4CCCO4)c3n2)ccc1O (stereo not shown) [Entry 165, 2-(4-hydroxy-3-methoxyphenyl)-8-oxo-9-(tetrahydrofuran-2-ylmethyl)-8,9-dihydro-7H-purine-6-carboxamide]	1.224	1.689
N#Cc1c[nH]n2c(NC3CCCCC3)c(-c3ccccc3F)nc12 [Entry 235, 3-(cyclohexylamino)-2-(2-fluorophenyl)-5H-imidazo[1,2-b]pyrazole-7-carbonitrile]	1.177	1.452
CC(C)c1nnc(NC(=O)c2cc(=O)c3ccc(Br)cc3o2)s1 [Entry 121, 7-bromo-4-oxo-N-(5-propan-2-yl-1,3,4-thiadiazol-2-yl)chromene-2-carboxamide]	1.118	1.26
